Reference: ChEMBL document CHEMBL3612042 (J Med Chem, 2015)
Converted amounts (≈) assume the structure as drawn.

How the values were obtained:
[1] = tested on: Mycobacterium tuberculosis; assay: Antibacterial activity against Mycobacterium tuberculosis MDR1 measured at 7 to 14 days by broth microdilution method; assay type: functional
[2] = tested on: Mycobacterium tuberculosis; assay: Antibacterial activity against Mycobacterium tuberculosis MDR7 measured at 7 to 14 days by broth microdilution method; assay type: functional
[3] = tested on: Mycobacterium tuberculosis; assay: Antibacterial activity against Mycobacterium tuberculosis XDR1 measured at 7 to 14 days by broth microdilution method; assay type: functional
[4] = tested on: Mycobacterium tuberculosis; assay: Antibacterial activity against Mycobacterium tuberculosis XDR2 measured at 7 to 14 days by broth microdilution method; assay type: functional
[5] = tested on: Mycobacterium tuberculosis; assay: Antibacterial activity against Mycobacterium tuberculosis MDR8 measured at 7 to 14 days by broth microdilution method; assay type: functional
[6] = tested on: Mycobacterium tuberculosis; assay: Antibacterial activity against Mycobacterium tuberculosis MDR3 measured at 7 to 14 days by broth microdilution method; assay type: functional
[7] = tested on: Mycobacterium tuberculosis; assay: Antibacterial activity against Mycobacterium tuberculosis MDR5 measured at 7 to 14 days by broth microdilution method; assay type: functional
[8] = tested on: Mycobacterium tuberculosis; assay: Antibacterial activity against Mycobacterium tuberculosis MDR4 measured at 7 to 14 days by broth microdilution method; assay type: functional
[9] = tested on: Mycobacterium tuberculosis; assay: Antibacterial activity against Mycobacterium tuberculosis MDR6 measured at 7 to 14 days by broth microdilution method; assay type: functional
[10] = tested on: Mycobacterium tuberculosis; assay: Antibacterial activity against Mycobacterium tuberculosis MDR2 measured at 7 to 14 days by broth microdilution method; assay type: functional
[11] = biological target: T1, Biotin--[acetyl-CoA-carboxylase] ligase (Mycobacterium tuberculosis (strain ATCC 25618 / H37Rv), UniProt I6YFP0)
T1 sequence (I6YFP0 whole entry): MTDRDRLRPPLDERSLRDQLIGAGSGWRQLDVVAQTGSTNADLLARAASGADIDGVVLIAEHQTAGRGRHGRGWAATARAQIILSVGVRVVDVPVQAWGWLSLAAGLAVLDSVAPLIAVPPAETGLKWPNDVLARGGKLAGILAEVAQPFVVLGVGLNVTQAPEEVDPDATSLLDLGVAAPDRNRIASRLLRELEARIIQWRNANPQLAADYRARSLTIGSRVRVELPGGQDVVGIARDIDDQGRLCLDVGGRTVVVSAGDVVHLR

[12] = tested on: Mycobacterium tuberculosis; assay: Antibacterial activity against Mycobacterium tuberculosis H37Rv measured at 10 to 14 days by broth microdilution method; assay type: functional
[13] = tested on: Mycobacterium tuberculosis H37Rv; assay: Drug uptake in Mycobacterium tuberculosis H37Rv at 25 uM after 24 hrs by LC-MS/MS analysis; assay type: ADME, organism-based

Row | SMILES | Kd [11] | MIC90 [12] | other results
1 | Nc1ncnc2c1ncn2[C@@H]1O[C@H](CNS(=O)(=O)NC(=O)CCCC[C@@H]2SC[C@@H]3NC(=O)N[C@@H]32)[C@@H](O)[C@H]1O | – | – | MIC99 [1]: 0.16 µM (≈ 0.0915 µg/mL); MIC99 [2]: 0.16 µM (≈ 0.0915 µg/mL); MIC99 [3]: 0.16 µM (≈ 0.0915 µg/mL); MIC99 [4]: 0.16 µM (≈ 0.0915 µg/mL); MIC99 [5]: 0.16 µM (≈ 0.0915 µg/mL); MIC99 [6]: 0.16 µM (≈ 0.0915 µg/mL); MIC99 [7]: 0.16 µM (≈ 0.0915 µg/mL); MIC99 [8]: 0.16 µM (≈ 0.0915 µg/mL); MIC99 [9]: 0.16 µM (≈ 0.0915 µg/mL); MIC99 [10]: 0.16 µM (≈ 0.0915 µg/mL)
2 | Nc1ncnc2c1ncn2[C@@H]1C[C@H](CNS(=O)(=O)NC(=O)CCCC[C@@H]2SC[C@@H]3NC(=O)N[C@@H]32)[C@@H](O)[C@H]1O | 0.753 nM | > 100 µM | –
3 | [N-]=[N+]=N[C@@H]1[C@H](O)[C@@H](CNS(=O)(=O)NC(=O)CCCC[C@@H]2SC[C@@H]3NC(=O)N[C@@H]32)O[C@H]1n1cnc2c(N)ncnc21 | 0.933 nM | 3.12 µM (≈ 1.86 µg/mL) | –
4 | Nc1ncnc2c1ncn2[C@@H]1O[C@H](CNS(=O)(=O)NC(=O)CCCC[C@@H]2SC[C@@H]3NC(=O)N[C@@H]32)[C@@H](O)[C@H]1N | 0.627 nM | 1.25 µM (≈ 0.713 µg/mL) | –
5 | CCN(CC)CC.Nc1ncnc2c1ncn2[C@@H]1O[C@H](CNS(=O)(=O)NC(=O)CCCC[C@@H]2SC[C@@H]3NC(=O)N[C@@H]32)[C@@H](O)[C@H]1F | 0.614 nM | 1.25 µM | Drug uptake [13]: Active
6 | Nc1ncnc2c1ncn2[C@H]1C=C[C@@H](CNS(=O)(=O)NC(=O)CCCC[C@@H]2SC[C@@H]3NC(=O)N[C@@H]32)C1 | 2.14 nM | 3.12 µM (≈ 1.67 µg/mL) | –
7 | CCN(CC)CC.Nc1ncnc2c1ncn2[C@@H]1O[C@H](COS(=O)(=O)NC(=O)CCCC[C@@H]2SC[C@@H]3NC(=O)N[C@@H]32)[C@@H](O)[C@@H]1F | 0.153 nM | 50 µM | Drug uptake [13]: Active
8 | C[C@@]1(O)[C@H](O)[C@@H](COS(=O)(=O)NC(=O)CCCC[C@@H]2SC[C@@H]3NC(=O)N[C@@H]32)O[C@H]1n1cnc2c(N)ncnc21 | 0.769 nM | 50 µM (≈ 29.3 µg/mL) | –
9 | Nc1ncnc2c1ncn2[C@H]1CNC[C@@H](COS(=O)(=O)NC(=O)CCCC[C@@H]2SC[C@@H]3NC(=O)N[C@@H]32)O1 | 0.324 nM | 3.12 µM (≈ 1.73 µg/mL) | –
10 | Nc1ncnc2c1ncn2[C@@H]1O[C@H](CNS(=O)(=O)NC(=O)CCCC[C@@H]2SC[C@@H]3NC(=O)N[C@@H]32)C[C@H]1O | 0.592 nM | 0.78 µM (≈ 0.433 µg/mL) | –
11 | Nc1ncnc2c1ncn2[C@H]1CC[C@@H](CNS(=O)(=O)NC(=O)CCCC[C@@H]2SC[C@@H]3NC(=O)N[C@@H]32)C1 | 0.54 nM | 1.56 µM (≈ 0.839 µg/mL) | –
